The subject of one assay is Akt-pS473 in U87MG cells. As to conditions: Homo sapiens, U-87 MG, read-out: U87 Akt-pS473 % Inhibition or IC50, nM (IC50), U87MG cells.
A further assay has as its system U87MG tumour cells. Briefly: Test of in vitro proliferation of U87MG tumour cells. As to conditions: Homo sapiens, U-87 MG, 72 h, U87MG cells, 72 hours; read-out: U87 Cell Proliferation IC50. The assay is classed as cell-based. The method, then:
Model 4: Test of in vitro Proliferation of U87MG Tumour Cells.
The cell growth is determined with the reagent CellTiter 96 AQueous One Solution Cell Proliferation Assay from Promega (Cat. No. G3581).

A further assay addresses PI3Kα (p110α/p85α) (Homo sapiens (Human), UniProt P42336). The assay can be described thus: PI3Kα enzymatic test by measuring the consumption of ATP. The assay is classed as biochemical. The method in brief: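 p110α/p85α (1.7 μg/ml) with 50 μM PIP2 and 2 μM ATP in pH 7.5 Tris buffer with EGTA, MgCl2, Chaps, DTT; reaction 90 min. Remaining ATP measured by luciferin/luciferase luminescence; IC50 from threefold serial dilutions spanning at least 10 000-fold.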

The target in assay [1] is mTOR (human recombinant aa mTOR 1360-2549) (Homo sapiens (Human), UniProt P42345). The assay can be described thus: mTOR enzymatic test by TR-FRET (phosphorylation of GFP-4EBP1). The class given is biochemical. The method in brief:
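TR-FRET detection of GFP-4EBP1 phosphorylation by a terbium-labelled anti-phospho-Thr46 antibody. Kinase reaction ran 30 min at room temperature, was quenched with EDTA (10 mM final) plus Tb-antibody (2 nM final) and left 60 min. Emission at 520 and 490 nm after 340 nm excitation, reported as the 520/490 ratio.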

mTOR (human recombinant aa mTOR 1360-2549), sequence (P42345 1360-2549): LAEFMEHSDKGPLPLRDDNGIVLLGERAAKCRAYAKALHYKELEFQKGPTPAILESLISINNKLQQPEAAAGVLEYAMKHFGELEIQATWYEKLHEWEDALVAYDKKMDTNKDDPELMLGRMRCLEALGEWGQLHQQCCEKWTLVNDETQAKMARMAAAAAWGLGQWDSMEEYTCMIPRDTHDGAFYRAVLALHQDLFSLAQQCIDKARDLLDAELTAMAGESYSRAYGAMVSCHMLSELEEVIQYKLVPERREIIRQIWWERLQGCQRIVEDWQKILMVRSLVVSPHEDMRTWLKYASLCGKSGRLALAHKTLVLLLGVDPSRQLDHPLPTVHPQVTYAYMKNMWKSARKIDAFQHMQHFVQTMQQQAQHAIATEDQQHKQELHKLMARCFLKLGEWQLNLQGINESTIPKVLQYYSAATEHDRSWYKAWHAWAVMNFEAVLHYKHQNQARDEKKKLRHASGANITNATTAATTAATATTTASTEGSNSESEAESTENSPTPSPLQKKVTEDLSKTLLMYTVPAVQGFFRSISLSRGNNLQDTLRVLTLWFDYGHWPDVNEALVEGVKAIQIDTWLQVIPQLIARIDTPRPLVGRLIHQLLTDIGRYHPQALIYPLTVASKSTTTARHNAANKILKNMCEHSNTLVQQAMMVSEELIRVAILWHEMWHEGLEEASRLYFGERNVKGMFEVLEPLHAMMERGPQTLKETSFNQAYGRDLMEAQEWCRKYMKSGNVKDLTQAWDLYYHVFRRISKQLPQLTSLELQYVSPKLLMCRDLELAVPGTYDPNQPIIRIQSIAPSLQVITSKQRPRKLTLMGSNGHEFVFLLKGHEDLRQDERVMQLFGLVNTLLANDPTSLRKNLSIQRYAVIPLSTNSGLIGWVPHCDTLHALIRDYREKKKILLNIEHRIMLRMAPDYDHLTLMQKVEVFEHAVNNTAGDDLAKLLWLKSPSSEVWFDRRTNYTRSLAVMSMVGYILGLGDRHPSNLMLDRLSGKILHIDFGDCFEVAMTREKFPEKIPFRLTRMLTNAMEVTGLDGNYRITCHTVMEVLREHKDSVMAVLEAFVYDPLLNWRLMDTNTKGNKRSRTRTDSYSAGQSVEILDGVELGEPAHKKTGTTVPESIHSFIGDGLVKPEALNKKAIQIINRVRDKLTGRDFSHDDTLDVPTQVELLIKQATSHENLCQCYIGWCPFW
PI3Kα (p110α/p85α), sequence (P42336 whole entry): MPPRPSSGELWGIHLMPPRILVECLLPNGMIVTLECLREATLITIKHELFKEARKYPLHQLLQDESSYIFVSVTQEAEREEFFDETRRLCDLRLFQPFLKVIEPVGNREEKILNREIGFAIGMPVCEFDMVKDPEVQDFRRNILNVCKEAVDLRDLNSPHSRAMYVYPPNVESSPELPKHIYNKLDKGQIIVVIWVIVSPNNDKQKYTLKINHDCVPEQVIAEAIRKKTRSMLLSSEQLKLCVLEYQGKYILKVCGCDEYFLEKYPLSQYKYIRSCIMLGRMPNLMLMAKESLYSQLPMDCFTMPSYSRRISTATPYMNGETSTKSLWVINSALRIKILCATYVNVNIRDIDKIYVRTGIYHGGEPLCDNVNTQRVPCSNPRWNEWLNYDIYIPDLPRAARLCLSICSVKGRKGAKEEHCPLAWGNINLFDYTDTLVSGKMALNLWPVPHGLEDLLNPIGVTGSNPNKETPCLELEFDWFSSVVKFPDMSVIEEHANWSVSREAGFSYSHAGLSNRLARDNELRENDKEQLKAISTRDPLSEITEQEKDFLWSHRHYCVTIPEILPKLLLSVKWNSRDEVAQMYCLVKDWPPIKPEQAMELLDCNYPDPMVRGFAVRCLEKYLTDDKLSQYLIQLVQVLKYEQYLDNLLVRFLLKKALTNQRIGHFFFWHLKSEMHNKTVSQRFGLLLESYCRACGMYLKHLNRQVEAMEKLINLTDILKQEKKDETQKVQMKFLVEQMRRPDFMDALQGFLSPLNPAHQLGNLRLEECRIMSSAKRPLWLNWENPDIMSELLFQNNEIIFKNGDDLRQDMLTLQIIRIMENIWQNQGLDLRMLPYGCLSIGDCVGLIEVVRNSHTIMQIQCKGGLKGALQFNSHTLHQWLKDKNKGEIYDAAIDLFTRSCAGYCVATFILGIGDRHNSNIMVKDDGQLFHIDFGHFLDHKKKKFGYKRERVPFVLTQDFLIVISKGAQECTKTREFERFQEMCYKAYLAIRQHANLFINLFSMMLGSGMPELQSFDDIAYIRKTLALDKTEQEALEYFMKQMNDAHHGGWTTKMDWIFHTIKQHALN
PI3Kα (p110α/p85α), sequence (P27986 whole entry partner): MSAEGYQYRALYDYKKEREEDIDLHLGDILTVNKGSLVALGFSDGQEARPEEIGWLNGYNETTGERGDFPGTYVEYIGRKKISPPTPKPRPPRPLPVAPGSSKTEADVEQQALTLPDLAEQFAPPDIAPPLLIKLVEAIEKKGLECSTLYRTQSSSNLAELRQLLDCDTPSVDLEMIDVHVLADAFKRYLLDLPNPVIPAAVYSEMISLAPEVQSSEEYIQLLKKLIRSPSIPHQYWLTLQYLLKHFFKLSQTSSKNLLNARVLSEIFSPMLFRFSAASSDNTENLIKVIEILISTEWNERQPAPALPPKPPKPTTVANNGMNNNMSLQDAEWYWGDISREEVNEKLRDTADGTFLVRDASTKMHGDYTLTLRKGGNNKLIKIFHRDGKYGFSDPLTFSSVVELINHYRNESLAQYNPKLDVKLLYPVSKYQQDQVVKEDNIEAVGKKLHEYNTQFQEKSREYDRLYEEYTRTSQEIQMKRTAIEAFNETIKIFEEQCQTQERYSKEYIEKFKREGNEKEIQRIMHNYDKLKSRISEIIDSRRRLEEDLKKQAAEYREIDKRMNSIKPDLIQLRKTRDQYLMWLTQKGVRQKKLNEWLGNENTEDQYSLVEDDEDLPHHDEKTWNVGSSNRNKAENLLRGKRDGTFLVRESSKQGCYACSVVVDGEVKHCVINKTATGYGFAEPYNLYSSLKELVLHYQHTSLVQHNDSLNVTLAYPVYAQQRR

In the case of `CC1(C)CN(C2CCOCC2)C(=O)c2c(nc(N3CC4CCC(C3)O4)nc2-c2ccc(NC(=O)Nc3ccon3)c(F)c2)O1` [Example 153, 1-{4-[8,8-Dimethyl-2-(8-oxa-3-azabicyclo[3.2.1]oct-3-yl)-5-oxo-6-(tetrahydropyran-4-yl)-5,6,7,8-tetrahydro-9-oxa-1,3,6-triazabenzocyclohepten-4-yl]-2-fluorophenyl}-3-isoxazol-3-ylurea], the IC50 turned out to be 116 nM with Akt-pS473 in U87MG cells, 346 nM in the assay on U87MG tumour cells and 31 nM in assay [1]. For the same molecule, on PI3Kα (p110α/p85α), the “PI3Ka IC50” value is reported as >10000 nM.
As to `CCN1CC(C)(C)Oc2nc(N3CC4CCC(C3)O4)nc(-c3ccc(NC(=O)Nc4ccc(C(F)(F)F)cc4F)cc3)c2C1=O` [Example 154, 1-{4-[6-Ethyl-8,8-dimethyl-2-(8-oxa-3-azabicyclo[3.2.1]oct-3-yl)-5-oxo-5,6,7,8-tetrahydro-9-oxa-1,3,6-triazabenzocyclohepten-4-yl]phenyl}-3-(2-fluoro-4-trifluoromethylphenyl)urea], the IC50 in the assay on Akt-pS473 in U87MG cells amounted to 54 nM; with U87MG tumour cells, 97 nM; in assay [1] it was 182 nM. Also, on PI3Kα (p110α/p85α), the “PI3Ka IC50” value was >10000 nM.
As for `CCN1CC(C)(C)Oc2nc(N3CC4CCC(C3)O4)nc(-c3ccc(NC(=O)Nc4cc(OC)c(F)cc4F)cc3)c2C1=O` [Example 155, 1-(2,4-Difluoro-5-methoxyphenyl)-3-{4-[6-ethyl-8,8-dimethyl-2-(8-oxa-3-azabicyclo[3.2.1]oct-3-yl)-5-oxo-5,6,7,8-tetrahydro-9-oxa-1,3,6-triazabenzocyclohepten-4-yl]phenyl}urea], the IC50 with Akt-pS473 in U87MG cells is 59 nM; with U87MG tumour cells it was 142 nM; in assay [1], 79 nM. Moreover, the “PI3Ka IC50” value on PI3Kα (p110α/p85α) was >10000 nM.
For `C[C@H]1COCCN1c1nc2c(c(-c3ccc(NC(=O)Nc4ccon4)c(F)c3)n1)C(=O)N(C1CCOCC1)CC(C)(C)O2` [Example 156, 1-{4-[8,8-Dimethyl-2-((S)-3-methylmorpholin-4-yl)-5-oxo-6-(tetrahydropyran-4-yl)-5,6,7,8-tetrahydro-9-oxa-1,3,6-triazabenzocyclohepten-4-yl]-2-fluorophenyl}-3-isoxazol-3-ylurea] the same measures were 92 nM, 395 nM, 27 nM and 1140 nM.
Turning to `CC1(C)CN(C2CCOCC2)C(=O)c2c(nc(N3CC4CCC(C3)O4)nc2-c2ccc(NC(=O)Nc3ccon3)cc2)O1` [Example 157, 1-{4-[8,8-Dimethyl-2-(8-oxa-3-azabicyclo[3.2.1]oct-3-yl)-5-oxo-6-(tetrahydropyran-4-yl)-5,6,7,8-tetrahydro-9-oxa-1,3,6-triazabenzocyclohepten-4-yl]phenyl}-3-isoxazol-3-ylurea], the IC50 was found to be 67 nM in the assay on Akt-pS473 in U87MG cells, 260 nM in the assay with U87MG tumour cells and 27 nM in assay [1]. The “PI3Ka IC50” value on PI3Kα (p110α/p85α) is >10000 nM.
In the same order, the values of `CCN1CC(C)(C)Oc2nc(N3CC4CCC(C3)O4)nc(-c3ccc(NC(=O)Nc4ccccn4)c(F)c3)c2C1=O` [Example 158, 1-{4-[6-Ethyl-8,8-dimethyl-2-(8-oxa-3-azabicyclo[3.2.1]oct-3-yl)-5-oxo-5,6,7,8-tetrahydro-9-oxa-1,3,6-triazabenzocyclohepten-4-yl]-2-fluorophenyl}-3-pyridin-2-ylurea] are 1600 nM, 1700 nM, 64 nM and >10000 nM.
On to `CCN1CC(C)(C)Oc2nc(N3CCOC[C@@H]3C)nc(-c3ccc(NC(=O)Nc4ccon4)c(F)c3)c2C1=O` [Example 159, 1-{4-[6-Ethyl-8,8-dimethyl-2-((S)-3-methylmorpholin-4-yl)-5-oxo-5,6,7,8-tetrahydro-9-oxa-1,3,6-triazabenzocyclohepten-4-yl]-2-fluorophenyl}-3-isoxazol-3-ylurea], for which the IC50 in the assay on Akt-pS473 in U87MG cells amounted to 21 nM; with U87MG tumour cells it was 98 nM; in assay [1], 18 nM. In addition, at PI3Kα (p110α/p85α), the “PI3Ka IC50” value came to 561 nM.
In the same order, the values of `CCN1CC(C)(C)Oc2nc(N3CCOC[C@@H]3C)nc(-c3ccc(NC(=O)Nc4cnccn4)c(F)c3)c2C1=O` [Example 160, 1-{4-[6-Ethyl-8,8-dimethyl-2-((S)-3-methylmorpholin-4-yl)-5-oxo-5,6,7,8-tetrahydro-9-oxa-1,3,6-triazabenzocyclohepten-4-yl]-2-fluorophenyl}-3-pyrazin-2-ylurea] are 114 nM, 744 nM, 41 nM and 4900 nM.
With `CCN1CC(C)(C)Oc2nc(N3CCOC[C@@H]3C)nc(-c3ccc(NC(=O)Nc4ccc(C)nc4)c(F)c3)c2C1=O` [Example 161, 1-{4-[6-Ethyl-8,8-dimethyl-2-((S)-3-methylmorpholin-4-yl)-5-oxo-5,6,7,8-tetrahydro-9-oxa-1,3,6-triazabenzocyclohepten-4-yl]-2-fluorophenyl}-3-(6-methylpyridin-3-yl)urea], the IC50 is 9 nM with Akt-pS473 in U87MG cells, 60 nM in the assay on U87MG tumour cells and 38 nM in assay [1]. Besides, the “PI3Ka IC50” value on PI3Kα (p110α/p85α) worked out at 321 nM.
For `COCCN1CC(C)(C)Oc2nc(N3CC4CCC(C3)O4)nc(-c3ccc(NC(=O)Nc4ccc(F)cc4F)cc3)c2C1=O` [Example 162, 1-(2,4-Difluorophenyl)-3-{4-[6-(2-methoxyethyl)-8,8-dimethyl-2-(8-oxa-3-azabicyclo[3.2.1]oct-3-yl)-5-oxo-5,6,7,8-tetrahydro-9-oxa-1,3,6-triazabenzocyclohepten-4-yl]phenyl}urea] the same measures were 110 nM, 486 nM, 147 nM and >10000 nM.
On to `CCN1CC(C)(C)Oc2nc(N3CCOC[C@@H]3C)nc(-c3ccc(NC(=O)Nc4ccc(OC)cn4)c(F)c3)c2C1=O` [Example 163, 1-{4-[6-Ethyl-8,8-dimethyl-2-((S)-3-methylmorpholin-4-yl)-5-oxo-5,6,7,8-tetrahydro-9-oxa-1,3,6-triazabenzocyclohepten-4-yl]-2-fluorophenyl}-3-(5-methoxypyridin-2-yl)urea], for which the values for the IC50 (in the assay on Akt-pS473 in U87MG cells; with U87MG tumour cells; in assay [1]) were 130 nM, 1020 nM and 55 nM, respectively. In addition, the “PI3Ka IC50” value at PI3Kα (p110α/p85α) was determined as 3870 nM.
As to `CCN1CC(C)(C)Oc2nc(N3CCOC[C@@H]3C)nc(-c3ccc(NC(=O)Nc4ccc(C)cn4)c(F)c3)c2C1=O` [Example 164, 1-{4-[6-Ethyl-8,8-dimethyl-2-((S)-3-methylmorpholin-4-yl)-5-oxo-5,6,7,8-tetrahydro-9-oxa-1,3,6-triazabenzocyclohepten-4-yl]-2-fluorophenyl}-3-(5-methylpyridin-2-yl)urea], the IC50 came to 227 nM in the assay on Akt-pS473 in U87MG cells, 872 nM in the assay on U87MG tumour cells and 85 nM in assay [1]. Further, on PI3Kα (p110α/p85α), the “PI3Ka IC50” value came out at 3800 nM.
On to `CCN1CC(C)(C)Oc2nc(N3CC4CCC(C3)O4)nc(-c3ccc(NC(=O)Nc4ccon4)c(C)c3)c2C1=O` [Example 165, 1-{4-[6-Ethyl-8,8-dimethyl-2-(8-oxa-3-azabicyclo[3.2.1]oct-3-yl)-5-oxo-5,6,7,8-tetrahydro-9-oxa-1,3,6-triazabenzocyclohepten-4-yl]-2-methylphenyl}-3-isoxazol-3-ylurea], for which the IC50 in the assay with Akt-pS473 in U87MG cells turned out to be 1530 nM; in the assay with U87MG tumour cells, 4200 nM; in assay [1], 180 nM. Also, the “PI3Ka IC50” value at PI3Kα (p110α/p85α) was >10000 nM.

Values taken from patent US9120812B2, “Pyrimidooxazocine derivatives as mTOR-inhibitors” (SANOFI, priority 2012, dated 2015).
